{
  "source": "patent US5284826A",
  "about": "“0-hydroxyethyl and acyloxyethyl derivatives of [ser]^8 cyclosporins” (Sandoz Ltd., priority 1989, dated 1994)",
  "experiment": "Stability of solid-state forms",
  "type": "physicochemical",
  "conditions": "B form (hydrate from acetone/water) compared with amorphous form and A and C modifications",
  "description": "Cyclosporins according to the invention may exist in the solid state in amorphous form or in one or more crystalline forms. For example, the compound of Example 2 below exists in amorphous form or in at least three crystalline forms, distinguishable by X-ray diffraction and designated the A, B and C modifications.",
  "data": [
    {"smiles": "C/C=C/C[C@@H](C)[C@@H](O)[C@H]1C(=O)N[C@@H](CC)C(=O)N(C)CC(=O)N(C)[C@@H](CC(C)C)C(=O)N[C@@H](C(C)C)C(=O)N(C)[C@@H](CC(C)C)C(=O)N[C@@H](C)C(=O)N[C@H](COCCO)C(=O)N(C)[C@@H](CC(C)C)C(=O)N(C)[C@@H](CC(C)C)C(=O)N(C)[C@@H](C(C)C)C(=O)N1C", "note": "[Example 2, [O-(2-hydroxyethyl)(D)Ser]^8 -Ciclosporin]", "values": [
      {"measurement": "stability of crystal form", "value": "most stable"}
    ]}
  ]
}
